These compounds were tested on LPS-induced nitric oxide (NO) production in RAW 264.7 cells (assay: Nitric oxide production in LPS-stimulated macrophages (Griess)). Conditions: Mus musculus; LPS-stimulated RAW264.7, nitrite 24 h after LPS.
Assay type: cell-based, mouse
Description: (§1) Marcophages (2×10^5 cells/well in 96-well plate) were treated with compounds for 1 h, then incubated further for 24 h with or without the presence of […] LPS in the cultural medium. Nitrite levels in cell culture medium were determined by the Griess reaction method. In parallel to the Griess assays, macrophage cell viabilities were determined using the MTT based colorimetric assay.
LPS from the outer membrane of Gram-negative bacteria can induce mRNA or protein levels of inducible nitric oxide synthase (iNOS), which catalyzes oxidative deamination of L-arginine to produce nitric oxide (NO). Once NO is predominantly produced, it interacts with superoxide anion and generates highly reactive oxidants resulting in cellular inflammation, DNA, protein and tissue damages, carcinogenesis, and antiapoptosis. We used in vitro LPS stimulated inflammation in RAW264.7 cell system to evaluate the effect of DET and its derivatives DETDs on NO production by determination of nitrite level (equivalent to NO level) in culture medium 24 h after LPS treatment.

SMILES | IC50
C=C1C(=O)OC2CC3=C[C@@H](C/C(C)=C/C(OC(=O)Cc4ccc5cc(OC)ccc5c4)[C@H]12)OC3=O (stereo partly shown) [DETD-46] | 3.1 µM
C=C1C(=O)OC2CC3=C[C@@H](C/C(C)=C/C(OC(=O)/C=C(\C)C(C)C)[C@H]12)OC3=O (stereo partly shown) [DETD-12] | 3.2 µM
C=C1C(=O)OC2CC3=C[C@@H](C/C(C)=C/C(OC(=O)/C=C/c4ccc(OC)cc4)[C@H]12)OC3=O (stereo partly shown) [DETD-26] | 1.7 µM

What follows are compounds tested on MCF-7 (ER+, Her2−) human breast cancer cells (assay: MTT cell viability assay, MCF-7 cells). Conditions: MCF7, 24 h, read-out: IC50 on cell viability, MCF-7 (ER+, Her2−).
Assay type: cell-based
Description: (§2) Normal or cancer cells (2×10^3 to 1×10^4 cells/well) were seeded in 96-well plate for overnight and treated with different compounds for 24 h to 72 h. Cells growth were determined by MTT-based colorimetric assays according to. Viability of the test cells treated with vehicle (0.5% DMSO) only was defined as 100% viable. Survival of cells after treatment with DETDs was calculated using the following formula: viable cell number (%)=OD570 (treated cell culture)/OD570 (vehicle control)×100.
(§3) Sixty DETDs were derived from parental compound […] and tested for anti-breast cancer cell activity.

SMILES | IC50
C=C1C(=O)OC2CC3=C[C@@H](C/C(C)=C/C(OC(=O)Cc4ccc5cc(OC)ccc5c4)[C@H]12)OC3=O (stereo partly shown) [DETD-46] | > 7.5 µM
C=C1C(=O)OC2CC3=C[C@@H](C/C(C)=C/C(OC(=O)/C=C(\C)C(C)C)[C@H]12)OC3=O (stereo partly shown) [DETD-12] | 4.2 µM
C=C1C(=O)OC2CC3=C[C@@H](C/C(C)=C/C(OC(=O)/C=C/c4ccc(OC)cc4)[C@H]12)OC3=O (stereo partly shown) [DETD-26] | 3.7 µM

Each compound was assayed on Melanocyte (Normal cells) (assay: MTT cell viability assay, normal melanocytes). Conditions: Homo sapiens, Melanocyte, 24 h.
Assay type: cell-based, human
Description: as §2
(§4) Several genes are involved in melanoma development and pathology; specifically, mutation in V-raf murine sarcoma viral oncogene homolog B1 (B-RAF) occurs approximately 50-60% and in neuroblastoma RAS viral oncogene homolog (N-RAS) occurs about 30% of malignant melanomas. A spectrum of wild-type or mutated melanoma cell lines including B16-F10, MeWo, A375, A2058, HTB-68, and melanocyte were used to study anti-melanoma cell proliferation activity of parental phytocompound DET and newly synthesized DETDs.

SMILES | IC50
C=C1C(=O)OC2CC3=C[C@@H](C/C(C)=C/C(OC(=O)Cc4ccc5cc(OC)ccc5c4)[C@H]12)OC3=O (stereo partly shown) [DETD-46] | > 10 µM
C=C1C(=O)OC2CC3=C[C@@H](C/C(C)=C/C(OC(=O)/C=C(\C)C(C)C)[C@H]12)OC3=O (stereo partly shown) [DETD-12] | > 10 µM
C=C1C(=O)OC2CC3=C[C@@H](C/C(C)=C/C(OC(=O)/C=C/c4ccc(OC)cc4)[C@H]12)OC3=O (stereo partly shown) [DETD-26] | > 10 µM

What follows are compounds tested on M10 normal mammary epithelial cells (assay: MTT cell viability assay, M10 normal cells). Conditions: 24 h.
Assay type: cell-based, human
Description: as §2, §3

SMILES | IC50 on cell viability, M10 (normal)
C=C1C(=O)OC2CC3=C[C@@H](C/C(C)=C/C(OC(=O)/C=C/c4ccc(OC)cc4)[C@H]12)OC3=O (stereo partly shown) [DETD-26] | some toxicity

Same assay, conditions: Homo sapiens, Epithelial cell, 24 h

SMILES | IC50
C=C1C(=O)OC2CC3=C[C@@H](C/C(C)=C/C(OC(=O)Cc4ccc5cc(OC)ccc5c4)[C@H]12)OC3=O (stereo partly shown) [DETD-46] | > 7.5 µM
C=C1C(=O)OC2CC3=C[C@@H](C/C(C)=C/C(OC(=O)/C=C(\C)C(C)C)[C@H]12)OC3=O (stereo partly shown) [DETD-12] | > 7.5 µM
C=C1C(=O)OC2CC3=C[C@@H](C/C(C)=C/C(OC(=O)/C=C/c4ccc(OC)cc4)[C@H]12)OC3=O (stereo partly shown) [DETD-26] | 4.7 µM

Each compound was assayed on MeWo (No NRAS or BRAF mutation) (assay: MTT cell viability assay, MeWo melanoma). Conditions: Homo sapiens, MeWo, 24 h.
Assay type: cell-based, human
Description: as §2, §4

SMILES | IC50
C=C1C(=O)OC2CC3=C[C@@H](C/C(C)=C/C(OC(=O)Cc4ccc5cc(OC)ccc5c4)[C@H]12)OC3=O (stereo partly shown) [DETD-46] | 6.3 µM
C=C1C(=O)OC2CC3=C[C@@H](C/C(C)=C/C(OC(=O)/C=C(\C)C(C)C)[C@H]12)OC3=O (stereo partly shown) [DETD-12] | > 10 µM
C=C1C(=O)OC2CC3=C[C@@H](C/C(C)=C/C(OC(=O)/C=C/c4ccc(OC)cc4)[C@H]12)OC3=O (stereo partly shown) [DETD-26] | > 10 µM

What follows are compounds tested on B16-F10 (NRAS mutation) (assay: MTT cell viability assay, B16-F10 melanoma). Conditions: Mus musculus, B16-F10, 24 h, 24 h, read-out: IC50 on cell viability, B16-F10 (NRAS mutation).
Assay type: cell-based
Description: as §2, §4

SMILES | IC50
C=C1C(=O)OC2CC3=C[C@@H](C/C(C)=C/C(OC(=O)Cc4ccc5cc(OC)ccc5c4)[C@H]12)OC3=O (stereo partly shown) [DETD-46] | 5.4 µM
C=C1C(=O)OC2CC3=C[C@@H](C/C(C)=C/C(OC(=O)/C=C(\C)C(C)C)[C@H]12)OC3=O (stereo partly shown) [DETD-12] | 7.2 µM
C=C1C(=O)OC2CC3=C[C@@H](C/C(C)=C/C(OC(=O)/C=C/c4ccc(OC)cc4)[C@H]12)OC3=O (stereo partly shown) [DETD-26] | 5 µM

What follows are compounds tested on RAW264.7 (normal macrophage) (assay: MTT cell viability assay, RAW264.7 macrophages). Conditions: Mus musculus, RAW264.7, 24 h.
Assay type: cell-based, mouse
Description: as §2, §1

SMILES | IC50
C=C1C(=O)OC2CC3=C[C@@H](C/C(C)=C/C(OC(=O)Cc4ccc5cc(OC)ccc5c4)[C@H]12)OC3=O (stereo partly shown) [DETD-46] | > 10 µM
C=C1C(=O)OC2CC3=C[C@@H](C/C(C)=C/C(OC(=O)/C=C(\C)C(C)C)[C@H]12)OC3=O (stereo partly shown) [DETD-12] | > 10 µM
C=C1C(=O)OC2CC3=C[C@@H](C/C(C)=C/C(OC(=O)/C=C/c4ccc(OC)cc4)[C@H]12)OC3=O (stereo partly shown) [DETD-26] | > 10 µM

Each compound was assayed on A375 (BRAF mutation) (assay: MTT cell viability assay, A375 melanoma). Conditions: Homo sapiens, A-375, 24 h, 24 h, MTT; read-out: IC50 on cell viability, A375 (BRAF mutation).
Assay type: cell-based, human
Description: as §2, §4
To investigate whether or not DETD-35 show synergism with PLX4032 against A375 melanoma cells, we performed anti-proliferation assay using MTT reagent to obtain IC50 of each compound. […] The synergistic effect was quantified by combination index (CI) analysis as stated above.

SMILES | IC50
C=C1C(=O)OC2CC3=C[C@@H](C/C(C)=C/C(OC(=O)Cc4ccc5cc(OC)ccc5c4)[C@H]12)OC3=O (stereo partly shown) [DETD-46] | 2.6 µM
C=C1C(=O)OC2CC3=C[C@@H](C/C(C)=C/C(OC(=O)/C=C(\C)C(C)C)[C@H]12)OC3=O (stereo partly shown) [DETD-12] | > 10 µM
C=C1C(=O)OC2CC3=C[C@@H](C/C(C)=C/C(OC(=O)/C=C/c4ccc(OC)cc4)[C@H]12)OC3=O (stereo partly shown) [DETD-26] | > 10 µM

These compounds were tested on A2058 (BRAF mutation) (assay: MTT cell viability assay, A2058 melanoma). Conditions: Homo sapiens, A2058, 24 h.
Assay type: cell-based, human
Description: as §2, §4

SMILES | IC50
C=C1C(=O)OC2CC3=C[C@@H](C/C(C)=C/C(OC(=O)Cc4ccc5cc(OC)ccc5c4)[C@H]12)OC3=O (stereo partly shown) [DETD-46] | 5 µM
C=C1C(=O)OC2CC3=C[C@@H](C/C(C)=C/C(OC(=O)/C=C(\C)C(C)C)[C@H]12)OC3=O (stereo partly shown) [DETD-12] | > 10 µM
C=C1C(=O)OC2CC3=C[C@@H](C/C(C)=C/C(OC(=O)/C=C/c4ccc(OC)cc4)[C@H]12)OC3=O (stereo partly shown) [DETD-26] | > 10 µM

What follows are compounds tested on HTB-68 (NRAS mutation) (assay: MTT cell viability assay, HTB-68 melanoma). Conditions: Homo sapiens, 24 h.
Assay type: cell-based, human
Description: as §2, §4

SMILES | IC50
C=C1C(=O)OC2CC3=C[C@@H](C/C(C)=C/C(OC(=O)Cc4ccc5cc(OC)ccc5c4)[C@H]12)OC3=O (stereo partly shown) [DETD-46] | 4.5 µM
C=C1C(=O)OC2CC3=C[C@@H](C/C(C)=C/C(OC(=O)/C=C(\C)C(C)C)[C@H]12)OC3=O (stereo partly shown) [DETD-12] | > 10 µM
C=C1C(=O)OC2CC3=C[C@@H](C/C(C)=C/C(OC(=O)/C=C/c4ccc(OC)cc4)[C@H]12)OC3=O (stereo partly shown) [DETD-26] | > 10 µM

The compounds below were run on MDA-MB-231 (ER−, PR−, Her2−) human breast cancer cells (assay: MTT cell viability assay, MDA-MB-231 cells). Conditions: Homo sapiens, MDA-MB-231, 24 h, read-out: IC50 on cell viability, MDA-MB-231 (ER−, PR−, Her2−).
Assay type: cell-based
Description: as §2, §3

SMILES | IC50
C=C1C(=O)OC2CC3=C[C@@H](C/C(C)=C/C(OC(=O)Cc4ccc5cc(OC)ccc5c4)[C@H]12)OC3=O (stereo partly shown) [DETD-46] | 7.3 µM
C=C1C(=O)OC2CC3=C[C@@H](C/C(C)=C/C(OC(=O)/C=C(\C)C(C)C)[C@H]12)OC3=O (stereo partly shown) [DETD-12] | 7 µM
C=C1C(=O)OC2CC3=C[C@@H](C/C(C)=C/C(OC(=O)/C=C/c4ccc(OC)cc4)[C@H]12)OC3=O (stereo partly shown) [DETD-26] | 4.1 µM

The compounds below were run on TS/A (ER+, Her2−) murine mammary cancer cells (assay: MTT cell viability assay, TS/A cells). Conditions: Mus musculus, 24 h, read-out: IC50 on cell viability, TS/A (ER+, Her2−).
Assay type: cell-based
Description: as §2, §3

SMILES | IC50
C=C1C(=O)OC2CC3=C[C@@H](C/C(C)=C/C(OC(=O)Cc4ccc5cc(OC)ccc5c4)[C@H]12)OC3=O (stereo partly shown) [DETD-46] | 3.8 µM
C=C1C(=O)OC2CC3=C[C@@H](C/C(C)=C/C(OC(=O)/C=C(\C)C(C)C)[C@H]12)OC3=O (stereo partly shown) [DETD-12] | 3.3 µM
C=C1C(=O)OC2CC3=C[C@@H](C/C(C)=C/C(OC(=O)/C=C/c4ccc(OC)cc4)[C@H]12)OC3=O (stereo partly shown) [DETD-26] | 1.5 µM
